# Key:
# [1] = system: Chlamydia pneumoniae; test: Clinical trial in CHD patients: serum anti-Chlamydia IgG (IgG-ELISA); format: in vivo, human; settings: for Chlamydia pneumoniae load in IgG-ELISA, ELISA reading: below 0.300-0.400 is considered negative
# Method: (§1) 20 Coronary Heart Disease (CHD) patients who were positive for anti-Chlamydia IgG and hypercholesterolaemia were identified. These patients were randomised in 4 groups of 5 patients, and each of them received daily either in: • 1st group—7 mg of lycopene supplement (in 70 mg of tomato oleoresin), or • 2nd group—[…] of WP, or • 3rd group—mechanical mixture of 7 mg of lycopene (in 70 mg of tomato oleoresin), and 70 mg of WP, or • 4th group—WP-Lycosome comprising of 7 mg of lycopene (in 70 mg of tomato oleoresin) and 70 mg of WP.
# (§2) Serum anti-Chlamydia IgG and total serum cholesterol were measured after 4 weeks.
# [2] = Clinical trial in CHD patients: total serum cholesterol; format: in vivo, human
# Method: as §1, §2
# [3] = clinical; format: in vivo, human
# Method: as §1
# [4] = Pharmacokinetic study on volunteers: unmodified trans-resveratrol in blood; format: in vivo; settings: human, serum, po, 100 mg, 100 mg trans-Resveratol oral, individual volunteers ID 1, 2, read-out: AUC for 24 hours
# Method: The group of 5 volunteers comprised of 2 female and 3 male clinically healthy Caucasian persons, age between 23 and 35 years. They were asked, before commencing this experiment, to go for 3-4 days “wash-out”, when consumption of any grape, wine, peanut, chocolate and other products which might contain them.
# Blood samples were taken from their median cubital or cephalic veins at the baseline point. […]
# After taking blood its serum was separated, aliquoted and stored at −80° C. for further testing.
# [5] = difference after 4 weeks of administration
Structure (SMILES),number of sero-positive patients ([1]; 0 w),"Chlamydia pneumoniae load in IgG-ELISA, ELISA reading ([1]; 0 w, CHD patients)",number of sero-positive patients ([1]; 1 w),number of sero-positive patients ([1]; 2 w),number of sero-positive patients ([1]; 3 w),time by which all patients were sero-negative / anti-Chlamydia IgG cleared from serum ([1]; 4-week trial),number of sero-positive patients ([1]; 4 w),"Chlamydia pneumoniae load in IgG-ELISA, ELISA reading ([1]; 4 w of daily administration)","effect on level of Chlamydia infection (specific IgG), in words ([1]; CHD patients, daily for 4 weeks)",Total serum Cholesterol ([2]; 0 w) [mmol/L],Total serum Cholesterol ([2]; 4 w) [mmol/L],reduction of serum cholesterol ([2]; after 4 weeks) [mmol/L],"Total serum Cholesterol, Δ [2, 5] [mmol/L]","Total serum Lycopene, Δ [3, 5]","concentration at 0 w ([3]; human, in vivo) [ng/mL]","concentration at 4 w ([3]; human, in vivo) [ng/mL]",AUC [4] [ng·h/mL]
"CC(C)=CCC/C(C)=C/C=C/C(C)=C/C=C/C(C)=C/C=C/C=C(C)/C=C/C=C(C)/C=C/C=C(\C)CCC=C(C)C [GA Lycopene, lycopene]",10,0.997 ± 0.098,(10),(4),(2),in the last week of the trial,0,0.288 ± 0.043,some ability to reduce Chlamydia infection,5.4 ± 0.23,4.7 ± 0.21,0.7,-0.7,+116 ng/ml,179 ± 21,295 ± 23,–
"Oc1ccc(/C=C/c2cc(O)cc(O)c2)cc1 [Resveratrol, 3,5,4′-trihydroxy-trans-stilbene]",–,–,–,–,–,–,–,–,–,–,–,–,–,–,–,–,432

# — patent publication US9737602B2, “Carotenoid particles and uses thereof” (IP SCIENCE LIMITED, priority 2011, dated 2017)
